In ChEMBL document CHEMBL1909046, “DrugMatrix in vitro pharmacology data” one finds IC50 and Ki data, which are given here for five molecules.

The IC50 is the concentration that inhibits the measured activity by half. What is called Ki is a measure of affinity in units of concentration, obtained from inhibition or displacement.

Series [1] deals with T1, Receptor-type tyrosine-protein phosphatase C (Homo sapiens, UniProt P08575).
T1 sequence (P08575 whole entry): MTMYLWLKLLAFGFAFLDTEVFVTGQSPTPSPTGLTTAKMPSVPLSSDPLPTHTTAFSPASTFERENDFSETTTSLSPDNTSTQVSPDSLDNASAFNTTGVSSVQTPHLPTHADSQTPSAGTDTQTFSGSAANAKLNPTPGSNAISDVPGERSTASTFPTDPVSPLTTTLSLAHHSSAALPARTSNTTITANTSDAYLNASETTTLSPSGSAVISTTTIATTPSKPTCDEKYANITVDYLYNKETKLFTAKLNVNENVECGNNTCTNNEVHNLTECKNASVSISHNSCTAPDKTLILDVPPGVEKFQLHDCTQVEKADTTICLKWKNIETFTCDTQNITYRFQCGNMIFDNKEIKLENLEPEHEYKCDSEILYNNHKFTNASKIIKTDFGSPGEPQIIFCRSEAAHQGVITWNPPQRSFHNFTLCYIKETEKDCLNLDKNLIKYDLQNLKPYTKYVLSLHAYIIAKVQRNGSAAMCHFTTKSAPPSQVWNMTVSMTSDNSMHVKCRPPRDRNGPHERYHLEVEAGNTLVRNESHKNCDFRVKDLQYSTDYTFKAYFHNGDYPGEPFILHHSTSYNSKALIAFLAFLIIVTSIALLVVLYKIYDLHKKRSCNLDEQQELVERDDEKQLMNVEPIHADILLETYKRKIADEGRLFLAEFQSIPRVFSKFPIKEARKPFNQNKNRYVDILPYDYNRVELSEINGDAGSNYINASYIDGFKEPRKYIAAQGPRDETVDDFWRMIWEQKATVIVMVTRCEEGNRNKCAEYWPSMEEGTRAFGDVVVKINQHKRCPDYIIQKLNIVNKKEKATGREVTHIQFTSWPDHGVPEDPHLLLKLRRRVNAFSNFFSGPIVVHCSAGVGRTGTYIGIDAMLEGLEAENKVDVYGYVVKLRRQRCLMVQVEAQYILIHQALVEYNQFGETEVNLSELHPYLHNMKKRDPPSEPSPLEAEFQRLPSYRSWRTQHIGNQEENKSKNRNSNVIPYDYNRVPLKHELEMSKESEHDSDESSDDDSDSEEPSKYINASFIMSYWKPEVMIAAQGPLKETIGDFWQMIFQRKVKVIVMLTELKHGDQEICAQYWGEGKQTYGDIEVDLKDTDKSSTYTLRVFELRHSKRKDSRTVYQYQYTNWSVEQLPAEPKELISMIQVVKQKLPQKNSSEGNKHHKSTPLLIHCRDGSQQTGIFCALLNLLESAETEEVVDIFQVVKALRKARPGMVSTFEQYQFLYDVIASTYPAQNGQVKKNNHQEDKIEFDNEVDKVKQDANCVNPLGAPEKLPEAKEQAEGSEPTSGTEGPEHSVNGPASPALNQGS
More on the design: species or system Escherichia coli.

Another series addresses Cytochrome P450 2E1 (Homo sapiens, UniProt P05181). To be noted: bti-tn-5b1-4.
The target in a further series is T2, B2 bradykinin receptor (Homo sapiens, UniProt P30411). Further: in other assays of this panel Not Active means under 50% inhibition at 10 µM.
T2 sequence (P30411 whole entry): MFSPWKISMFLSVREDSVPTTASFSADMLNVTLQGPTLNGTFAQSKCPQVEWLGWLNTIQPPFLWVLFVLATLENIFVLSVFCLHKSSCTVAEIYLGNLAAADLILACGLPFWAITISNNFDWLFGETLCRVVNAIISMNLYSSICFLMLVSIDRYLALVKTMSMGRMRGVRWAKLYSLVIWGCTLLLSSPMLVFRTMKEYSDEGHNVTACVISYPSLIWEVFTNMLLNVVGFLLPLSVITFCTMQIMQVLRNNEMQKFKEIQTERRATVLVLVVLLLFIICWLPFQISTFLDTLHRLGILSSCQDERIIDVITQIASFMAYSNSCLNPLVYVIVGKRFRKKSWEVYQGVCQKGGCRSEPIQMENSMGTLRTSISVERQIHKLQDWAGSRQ
In kind it is cell membranes, Membrane. Conditions: chem-1.

The target of another series is D(1A) dopamine receptor (Homo sapiens, UniProt P21728). The series is described as follows: DRUGMATRIX: Dopamine D1 radioligand binding (ligand: [3H] SCH-23390). In kind it is cell membranes, CHO, Membrane. Conditions: Not Active = under 50% inhibition at 10 µM.
Series [2] concerns the target C-C chemokine receptor type 5 (Homo sapiens, UniProt P51681). It is filed as cell membranes, Membrane. Conditions: hek293. Further: in other assays of this panel Not Active means under 50% inhibition at 10 µM.
Series [3] can be described thus: DRUGMATRIX: Calcium Channel Type L, Benzothiazepine radioligand binding (ligand: [3H] Diltiazem). Conditions: Not Active = under 50% inhibition at 10 µM. It is filed as cell membranes, Rattus norvegicus, Wistar, Brain, Membrane.
The target in series [4] is T3, Muscarinic acetylcholine receptor M4 (Homo sapiens, UniProt P08173). Further: in other assays of this panel Not Active means under 50% inhibition at 10 µM.
T3 sequence (P08173 whole entry): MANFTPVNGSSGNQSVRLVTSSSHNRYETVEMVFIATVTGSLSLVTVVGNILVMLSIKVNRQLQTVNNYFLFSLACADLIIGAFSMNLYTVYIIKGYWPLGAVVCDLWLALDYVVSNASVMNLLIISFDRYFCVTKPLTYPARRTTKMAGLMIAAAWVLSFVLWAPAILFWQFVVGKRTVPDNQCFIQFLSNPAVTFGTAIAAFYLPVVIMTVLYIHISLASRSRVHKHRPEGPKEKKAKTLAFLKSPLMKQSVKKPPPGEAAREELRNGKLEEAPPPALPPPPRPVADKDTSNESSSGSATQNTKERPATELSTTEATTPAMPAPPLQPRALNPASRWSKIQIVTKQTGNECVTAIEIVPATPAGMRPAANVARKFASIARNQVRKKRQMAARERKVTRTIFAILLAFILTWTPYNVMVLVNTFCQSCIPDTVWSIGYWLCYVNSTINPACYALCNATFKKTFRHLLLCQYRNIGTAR
In kind it is cell membranes, CHO-K1, Membrane. To be noted: cho-k1.

Series [5] deals with 5-hydroxytryptamine receptor 4 (Cavia porcellus, UniProt O70528). It is filed as cell membranes, Dunkin-Hartley, Striatum, Membrane.
The target in series [6] is Matrix metalloproteinase-9 (Homo sapiens, UniProt P14780). In kind it is cell-based.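 Further: inhibition of isolated MMP-9 enzyme activity toward a synthetic peptide substrate, from the DrugMatrix protease screening panel; in other assays of this panel Not Active means under 50% inhibition at 10 µM.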
A short description of series [7]: DRUGMATRIX: Glutamate, NMDA, Phencyclidine radioligand binding (ligand: [3H] TCP). It is filed as cell membranes, Rattus norvegicus, Wistar, Cerebral cortex, Membrane. Conditions: Not Active = under 50% inhibition at 10 µM.
Series [8] deals with C-C chemokine receptor type 2 (Homo sapiens, UniProt P41597). In kind it is cell membranes, CHO-K1, Membrane. Conditions: cho-k1.
In the next series the target is Estrogen receptor beta (Homo sapiens, UniProt Q92731). To be noted: sf9. Further: in other assays of this panel Not Active means under 50% inhibition at 10 µM.
The target in series [9] is Sodium-dependent dopamine transporter (Homo sapiens, UniProt Q01959). The experiment in a line: DRUGMATRIX: Dopamine Transporter radioligand binding (ligand: [125I] RTI-55). Conditions: Not Active = under 50% inhibition at 10 µM; for Ki: read-out: Ki. In kind it is cell membranes, CHO-K1, Membrane.
Sodium-dependent dopamine transporter, sequence (Q01959 whole entry): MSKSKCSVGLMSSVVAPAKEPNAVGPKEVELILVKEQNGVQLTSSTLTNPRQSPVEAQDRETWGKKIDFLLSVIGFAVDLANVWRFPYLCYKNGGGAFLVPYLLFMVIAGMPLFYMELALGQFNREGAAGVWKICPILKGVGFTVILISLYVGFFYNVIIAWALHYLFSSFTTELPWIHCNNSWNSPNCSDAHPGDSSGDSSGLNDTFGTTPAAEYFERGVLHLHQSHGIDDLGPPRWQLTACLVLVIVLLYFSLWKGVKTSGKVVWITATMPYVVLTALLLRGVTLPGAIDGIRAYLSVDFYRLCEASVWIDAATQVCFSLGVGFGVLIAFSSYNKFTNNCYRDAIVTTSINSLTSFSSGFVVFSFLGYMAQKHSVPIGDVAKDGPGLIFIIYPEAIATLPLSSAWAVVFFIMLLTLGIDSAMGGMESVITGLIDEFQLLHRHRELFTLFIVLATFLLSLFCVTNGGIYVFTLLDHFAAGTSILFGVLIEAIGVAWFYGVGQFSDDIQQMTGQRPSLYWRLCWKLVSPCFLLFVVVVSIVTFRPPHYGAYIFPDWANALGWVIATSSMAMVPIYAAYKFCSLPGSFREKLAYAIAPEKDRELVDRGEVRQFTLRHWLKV

Matrix metalloproteinase-9, sequence (P14780 whole entry): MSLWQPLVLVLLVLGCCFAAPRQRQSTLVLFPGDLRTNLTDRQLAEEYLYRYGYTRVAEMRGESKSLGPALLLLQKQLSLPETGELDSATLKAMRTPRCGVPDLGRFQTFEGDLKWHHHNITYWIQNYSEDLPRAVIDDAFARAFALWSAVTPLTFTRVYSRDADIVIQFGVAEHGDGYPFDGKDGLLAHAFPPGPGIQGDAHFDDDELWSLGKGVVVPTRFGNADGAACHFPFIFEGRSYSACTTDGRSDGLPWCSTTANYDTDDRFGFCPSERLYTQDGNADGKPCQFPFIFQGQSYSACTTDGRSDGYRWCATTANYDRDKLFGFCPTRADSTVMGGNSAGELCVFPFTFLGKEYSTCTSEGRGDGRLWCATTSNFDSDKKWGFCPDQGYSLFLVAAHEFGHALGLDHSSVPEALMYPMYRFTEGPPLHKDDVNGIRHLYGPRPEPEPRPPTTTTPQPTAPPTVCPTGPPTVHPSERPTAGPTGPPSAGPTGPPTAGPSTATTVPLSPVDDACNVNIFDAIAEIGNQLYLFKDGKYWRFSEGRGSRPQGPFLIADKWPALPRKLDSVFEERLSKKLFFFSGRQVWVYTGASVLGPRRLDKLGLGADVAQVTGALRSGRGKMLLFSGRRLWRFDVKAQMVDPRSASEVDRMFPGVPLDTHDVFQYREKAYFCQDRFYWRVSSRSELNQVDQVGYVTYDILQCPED
C-C chemokine receptor type 5, sequence (P51681 whole entry): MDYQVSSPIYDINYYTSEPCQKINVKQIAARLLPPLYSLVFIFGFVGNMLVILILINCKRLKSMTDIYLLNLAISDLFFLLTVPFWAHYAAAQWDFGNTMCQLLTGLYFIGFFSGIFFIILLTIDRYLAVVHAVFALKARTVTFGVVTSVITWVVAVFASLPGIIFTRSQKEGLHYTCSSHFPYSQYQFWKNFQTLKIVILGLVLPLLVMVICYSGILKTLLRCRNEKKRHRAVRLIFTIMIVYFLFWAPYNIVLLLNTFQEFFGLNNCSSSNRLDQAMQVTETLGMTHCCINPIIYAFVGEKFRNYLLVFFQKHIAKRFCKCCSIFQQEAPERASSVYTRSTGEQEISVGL
Cytochrome P450 2E1, sequence (P05181 whole entry): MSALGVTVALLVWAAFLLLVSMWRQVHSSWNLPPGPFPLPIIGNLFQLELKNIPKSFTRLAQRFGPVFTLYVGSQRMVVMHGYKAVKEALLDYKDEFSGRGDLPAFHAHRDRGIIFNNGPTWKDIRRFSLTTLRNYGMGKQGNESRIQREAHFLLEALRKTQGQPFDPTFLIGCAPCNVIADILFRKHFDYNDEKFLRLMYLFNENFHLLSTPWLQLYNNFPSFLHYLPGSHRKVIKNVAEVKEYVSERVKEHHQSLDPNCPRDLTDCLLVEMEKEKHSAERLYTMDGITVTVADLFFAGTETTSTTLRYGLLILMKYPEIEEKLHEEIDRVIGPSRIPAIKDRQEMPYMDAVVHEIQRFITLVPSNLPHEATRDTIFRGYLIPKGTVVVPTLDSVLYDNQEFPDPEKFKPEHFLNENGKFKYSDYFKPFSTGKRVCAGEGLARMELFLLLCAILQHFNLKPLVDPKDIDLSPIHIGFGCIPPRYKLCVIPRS
C-C chemokine receptor type 2, sequence (P41597 whole entry): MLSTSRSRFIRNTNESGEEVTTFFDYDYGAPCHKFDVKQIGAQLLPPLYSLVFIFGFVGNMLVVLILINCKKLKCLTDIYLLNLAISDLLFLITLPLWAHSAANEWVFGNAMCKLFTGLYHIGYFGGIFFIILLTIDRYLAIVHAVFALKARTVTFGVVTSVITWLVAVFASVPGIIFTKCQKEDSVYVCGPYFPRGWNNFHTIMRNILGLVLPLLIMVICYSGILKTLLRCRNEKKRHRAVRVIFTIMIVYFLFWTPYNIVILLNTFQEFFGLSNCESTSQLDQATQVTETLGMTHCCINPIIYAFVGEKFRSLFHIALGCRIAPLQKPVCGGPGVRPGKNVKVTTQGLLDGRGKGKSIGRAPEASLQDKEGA
5-hydroxytryptamine receptor 4, sequence (O70528 whole entry): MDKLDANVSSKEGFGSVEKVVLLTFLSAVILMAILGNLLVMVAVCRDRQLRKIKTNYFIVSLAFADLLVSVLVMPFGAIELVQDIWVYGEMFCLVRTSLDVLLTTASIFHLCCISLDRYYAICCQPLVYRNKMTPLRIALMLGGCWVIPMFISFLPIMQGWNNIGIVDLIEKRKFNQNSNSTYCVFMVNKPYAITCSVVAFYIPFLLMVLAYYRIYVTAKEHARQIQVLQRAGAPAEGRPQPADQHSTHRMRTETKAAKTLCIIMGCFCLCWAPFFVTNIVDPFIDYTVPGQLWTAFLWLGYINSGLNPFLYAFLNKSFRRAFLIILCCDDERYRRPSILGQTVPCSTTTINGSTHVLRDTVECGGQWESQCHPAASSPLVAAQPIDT
D(1A) dopamine receptor, sequence (P21728 whole entry): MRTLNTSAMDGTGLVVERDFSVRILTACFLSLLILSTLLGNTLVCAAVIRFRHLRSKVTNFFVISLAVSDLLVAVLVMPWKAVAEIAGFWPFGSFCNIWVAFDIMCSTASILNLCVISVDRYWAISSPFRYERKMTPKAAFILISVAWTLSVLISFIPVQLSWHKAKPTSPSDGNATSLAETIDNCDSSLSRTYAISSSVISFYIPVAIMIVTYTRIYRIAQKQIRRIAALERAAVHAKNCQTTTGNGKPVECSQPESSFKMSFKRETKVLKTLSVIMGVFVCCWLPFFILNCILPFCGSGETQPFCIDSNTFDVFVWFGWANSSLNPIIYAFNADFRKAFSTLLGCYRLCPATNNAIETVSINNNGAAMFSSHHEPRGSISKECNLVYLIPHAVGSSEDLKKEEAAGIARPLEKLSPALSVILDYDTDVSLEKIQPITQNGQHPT
Estrogen receptor beta, sequence (Q92731 whole entry): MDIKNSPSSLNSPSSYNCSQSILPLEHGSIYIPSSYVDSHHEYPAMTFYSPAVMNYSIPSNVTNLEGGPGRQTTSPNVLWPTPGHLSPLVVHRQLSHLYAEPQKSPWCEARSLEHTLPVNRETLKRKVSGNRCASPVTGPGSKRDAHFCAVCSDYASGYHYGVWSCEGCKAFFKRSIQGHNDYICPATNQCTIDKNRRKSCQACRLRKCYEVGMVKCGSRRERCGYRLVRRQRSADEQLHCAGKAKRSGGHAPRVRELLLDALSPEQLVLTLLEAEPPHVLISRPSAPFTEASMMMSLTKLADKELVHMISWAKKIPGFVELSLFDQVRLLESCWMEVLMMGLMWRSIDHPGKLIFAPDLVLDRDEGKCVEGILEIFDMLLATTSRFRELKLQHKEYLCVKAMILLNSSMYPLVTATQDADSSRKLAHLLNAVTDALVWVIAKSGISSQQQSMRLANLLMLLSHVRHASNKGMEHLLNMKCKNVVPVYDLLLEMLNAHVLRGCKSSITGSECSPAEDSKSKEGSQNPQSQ

Consider `Oc1c(Cl)cc(Cl)cc1Sc1cc(Cl)cc(Cl)c1O` [BITHIONOL], for which the IC50 result (in series [1]; against Cytochrome P450 2E1; against B2 bradykinin receptor; at D(1A) dopamine receptor (cho); in [2]; in series [3]) was “Not Active” in each case. In addition, the IC50 result (in series [4]; in series [5]; in series [6]; in [7]; in series [8]; against Estrogen receptor beta) was “Not Active” throughout. The inhibition constant Ki result (on Cytochrome P450 2E1; in series [3]; in series [7]) was “Not Active” in each case.

Regarding `CNCCC=C1c2ccccc2CCc2ccccc21` [NORTRIPTYLINE], the IC50 entry in [1] is “Not Active”; on Cytochrome P450 2E1, “Not Active”; against B2 bradykinin receptor, “Not Active”; at D(1A) dopamine receptor (read-out: IC50), 539 nM; in series [2], “Not Active”; in series [3] (read-out: IC50) it was 2800 nM. The IC50 was 1680 nM in [9] (read-out: IC50); “Not Active” in series [5]; “Not Active” in series [6]; “Not Active” in series [7]; “Not Active” in [8]; “Not Active” at Estrogen receptor beta. The Ki result on Cytochrome P450 2E1 was “Not Active”; on D(1A) dopamine receptor (read-out: Ki) it was 269 nM; in series [3] (read-out: Ki) it was 2490 nM; in [9], 1330 nM; in series [7], “Not Active”.

With `CN1C(C(=O)Nc2ccccn2)=C(O)c2ccccc2S1(=O)=O` [PIROXICAM], the IC50 result (in [1]; against Cytochrome P450 2E1; against B2 bradykinin receptor; on D(1A) dopamine receptor (cho); in series [2]; in [3]) was “Not Active” each time. Further, the IC50 entry in series [4], in [9] (cho-k1), in [5], in series [6], in [7] and in [8] was “Not Active” in each case. For the same molecule, the Ki entry (on Cytochrome P450 2E1; in series [3]; in [7]) was “Not Active” throughout.

`CCCc1cc(=O)[nH]c(=S)[nH]1` [PROPYLTHIOURACIL]: the IC50 entry (in series [1]; at Cytochrome P450 2E1; against B2 bradykinin receptor; at D(1A) dopamine receptor (cho); in [2]; in series [3]) was “Not Active” in each case. Further, the half-maximal inhibitory concentration (IC50) entry in series [4], in series [9] (cho-k1), in series [5], in [6], in series [7] and in series [8] was “Not Active” in each case. The Ki entry (on Cytochrome P450 2E1; in series [3]; in series [7]) was “Not Active” throughout.

For `COc1ccc(CN(CCN(C)C)c2ccccn2)cc1` [PYRILAMINE], the IC50 entry (in [1]; at Cytochrome P450 2E1; at B2 bradykinin receptor; on D(1A) dopamine receptor (cho); in series [2]; in series [3]) was “Not Active” throughout. Besides, the IC50 entry is “Not Active” in series [4]; 879 nM in series [9] (read-out: IC50); “Not Active” in series [5]; “Not Active” in series [6]; “Not Active” in series [7]; “Not Active” in [8]. Further, the Ki result on Cytochrome P450 2E1 is “Not Active”; in series [3], “Not Active”; in series [9], 699 nM; in series [7], “Not Active”.
